Experiment [1] addresses BRD4(1) (amino acids 44-168) (Homo sapiens (Human), UniProt O60885). Nature of the experiment: BRD4 binding strength, TR-FRET (HTRF) assay of BRD4(1) / acetylated histone H4 peptide interaction. The settings on record: inhibition of BRD4(1)/Ac-H4 peptide interaction. In general terms: TR-FRET usually uses a lanthanide donor and a delayed reading to cut background.
For the next experiment, the system named is MOLM-13 cells. As to the kind of experiment: Cell proliferation (alamarBlue), MOLM-13. The conditions noted are these: Homo sapiens, acute myeloid leukaemia cell line, 96 hours incubation. It counts as cell-based. The gist of the method: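 Cells seeded at 4000/well, fluorescence read after overnight at 37° C, then compound-treated for 96 h (MOLM-13, MDA-MB-231), 120 h (MOLP-8) or 168 h (LAPC-4). AlamarBlue fluorescence at start subtracted from end value and compared with buffer-treated cells.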
A general note: Alamar Blue is a resazurin reagent that responds to reducing activity.

Another experiment deals with LAPC-4 cells. As to the kind of experiment: Cell proliferation (alamarBlue), LAPC-4. Format: cell-based. The conditions noted are these: Homo sapiens, LAPC4; prostate carcinoma (androgen receptor-positive) cell line, 168 hours incubation.
A further experiment deals with B16F10 cells. Nature of the experiment: Cell proliferation (alamarBlue), B16F10. The settings on record: Mus musculus, B16-F10; melanoma cell line, 96 hours incubation. It counts as cell-based. A digest of the protocol:
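Mouse B16F10 cells were plated at 400 cells/well in 100 μl of growth medium in 96-well microtitre plates and incubated overnight at 37° C. Initial fluorescence (CI) was then read with alamarBlue® reagent. Cells were exposed to serial compound dilutions for 96 hours at 37° C before final fluorescence (CO) was read. CI was subtracted from CO and compared with buffer-treated controls.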

In another experiment the test system is MOLP-8 cells. Nature of the experiment: Cell proliferation (alamarBlue), MOLP-8. It counts as cell-based. The conditions noted are these: Homo sapiens, multiple myeloma cell line, 120 hours incubation.
A further experiment deals with MDA-MB-231 cells. Nature of the experiment: Cell proliferation (alamarBlue), MDA-MB-231. Format: cell-based. The settings on record: Homo sapiens, mammary carcinoma cell line, 96 hours incubation. The protocol: The ability of the compounds according to the invention to inhibit the proliferation of various cell lines was determined.
Cell viability was determined by means of the alamarBlue® reagent (Invitrogen). The cells were sown at different densities (MOLM-13, LAPC-4, MOLP-8 and MDA-MB-231: 4000 cells/well; B16F10: 400 cells/well) in 100 μl of growth medium on 96-well microtitre plates. After overnight incubation at 37° C., the fluorescence values (CI values) were determined. The plates were then treated with various substance dilutions and incubated at 37° C. for 96 hours (MOLM-13, MDA-MB-231 and B16F10 cells), 120 hours (MOLP-8 cells) or 168 hours (LAPC-4 cells). Subsequently, the fluorescence values were determined (CO values). For the data analysis, the CI values were subtracted from the CO values and the results were compared between cells which had been treated with various dilutions of the substance or only with buffer solution.
The compounds according to the invention were tested in the cell lines in Table 2, which represent the indications specified by way of example:
The indications corresponding to the different cell lines can be found in Table 2.

For `Cc1nnc2n1-c1ccccc1C(c1ccc(Cl)cc1)=CC2CC(=O)N1CC2(COC2)C1` (stereo in doubt) [Example 4, (−)-2-[(4R)-6-(4-chlorophenyl)-1-methyl-4H-[1,2,4]triazolo[4,3-a][1]benzazepin-4-yl]-1-(2-oxa-6-azaspiro[3.3]hept-6-yl)ethanone], the IC50 (in general, the concentration that inhibits the measured activity by half) in experiment [1] was found to be 130 nM; in the experiment on MOLM-13 cells, 360 nM; in the experiment on LAPC-4 cells it was 660 nM; in the experiment on B16F10 cells it was 550 nM; with MOLP-8 cells, 740 nM; with MDA-MB-231 cells it was 2370 nM.

With `Cc1nnc(CC2C=C(c3ccc(Cl)cc3)c3ccccc3-n3c(C)nnc32)o1` (stereo in doubt) [Example 38, (−)-(4R)-6-(4-chlorophenyl)-1-methyl-4-[(5-methyl-1,3,4-oxadiazol-2-yl)methyl]-4H-[1,2,4]triazolo[4,3-a][1]benzazepine], the 50% inhibitory concentration (IC50) in experiment [1] stood at 20 nM; in the experiment with MOLM-13 cells, 120 nM; with LAPC-4 cells, 40 nM; with B16F10 cells it was 60 nM; in the experiment on MOLP-8 cells, 45 nM; in the experiment on MDA-MB-231 cells, 110 nM.

Take `Cc1nnc2n1-c1ccccc1C(c1ccc(Cl)cc1)=C[C@H]2CC(=O)N1CC(Oc2ccccc2)C1` [Example 25, (−)-2-[(4R)-6-(4-chlorophenyl)-1-methyl-4H-[1,2,4]triazolo[4,3-a][1]benzazepin-4-yl]-1-(3-phenoxyazetidin-1-yl)ethanone]: the half-inhibitory concentration (IC50) in experiment [1] is 1400 nM; with MOLM-13 cells, 1130 nM; in the experiment on LAPC-4 cells it was 170 nM; in the experiment on B16F10 cells it was 490 nM; in the experiment with MOLP-8 cells it was 590 nM; in the experiment on MDA-MB-231 cells, 1330 nM.

Take `Cc1nnc2n1-c1ccccc1C(c1ccc(Cl)cc1)=CC2CC(=O)N1CCC(=O)C1` (stereo not drawn) [Example 26, 1-{[6-(4-chlorophenyl)-1-methyl-4H-[1,2,4]triazolo[4,3-a][1]benzazepin-4-yl]acetyl}pyrrolidin-3-one]: the 50% inhibitory concentration (IC50) in experiment [1] is 40 nM; in the experiment with MOLM-13 cells it was 830 nM; with LAPC-4 cells, 310 nM; in the experiment with B16F10 cells, 610 nM; with MOLP-8 cells, 380 nM; in the experiment on MDA-MB-231 cells, 1360 nM.

On to `Cc1nnc2n1-c1ccccc1C(c1ccc(Cl)cc1)=CC2CC(=O)N1CCC2(CCCC2)CC1` (stereo not drawn) [Example 28, 1-(8-azaspiro[4.5]dec-8-yl)-2-[6-(4-chlorophenyl)-1-methyl-4H-[1,2,4]triazolo[4,3-a][1]benzazepin-4-yl]ethanone], for which the concentration for half-maximal inhibition (IC50) in experiment [1] is 1400 nM; in the experiment with MOLM-13 cells it was more than 10000 nM; in the experiment on LAPC-4 cells, 1200 nM; with B16F10 cells it was 7050 nM; in the experiment on MOLP-8 cells, 6300 nM; in the experiment with MDA-MB-231 cells, more than 10000 nM.

`Cc1nnc2n1-c1ccccc1C(c1ccc(Cl)cc1)=C[C@H]2CC(=O)N1CCC2(CCCC2)CC1` [Example 29, (−)-1-(8-azaspiro[4.5]dec-8-yl)-2-[(4R)-6-(4-chlorophenyl)-1-methyl-4H-[1,2,4]triazolo[4,3-a][1]benzazepin-4-yl]ethanone]: the IC50 in experiment [1] turned out to be 1800 nM; in the experiment on MOLM-13 cells it was 2960 nM; with LAPC-4 cells, 670 nM; in the experiment with B16F10 cells, 2120 nM; in the experiment with MOLP-8 cells it was 1670 nM; with MDA-MB-231 cells, 4730 nM.

Regarding `Cc1noc(C[C@H]2C=C(c3ccc(Cl)cc3)c3ccccc3-n3c(C)nnc32)n1` [Example 35, (−)-6-[(4R)-4-chlorophenyl]-1-methyl-4-[(3-methyl-1,2,4-oxadiazol-5-yl)methyl]-4H-[1,2,4]triazolo[4,3-a][1]benzazepine], the IC50 in experiment [1] came to 30 nM; in the experiment with MOLM-13 cells, 160 nM; with LAPC-4 cells, 80 nM; in the experiment on B16F10 cells, 150 nM; with MOLP-8 cells, 130 nM; in the experiment with MDA-MB-231 cells it was 210 nM.
